# Earlier results in patent US4215038A, “Peptides which inhibit gonadal function” (The Salk Institute for Biological Studies, priority 1978, dated 1980).
# Non-standard residues stand in square brackets, D forms with d. pGlu = O=C1CC[C@@H](C(=O)O)N1
# System: release of gonadotropins
# Conditions: compared with the 6-Gly peptide
substance,measurement,value
[pGlu]WSY[dA]LRPG-NH2,potency as an inhibitor for the release of gonadotropins relative to the same peptide with Gly in the 6-position,3 times
